Measured values taken from patent US6914045B2, “Glycopeptide antibiotics” (Wyeth Holdings Corporation, priority 2001, dated 2005).
Converted amounts (≈) assume the structure as drawn.

What was measured:
Experiment in all cases: in vitro antibacterial evaluation, MIC by broth dilution
Format in all cases: cell-based
[1] = system: Streptococcus sp.; details: broth dilution, 18 hours at 35° C.
In short: (§1)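 Following National Committee for Clinical Laboratory Standards recommendations (M7-A2), susceptibility was measured by dilution in Muller-Hinton II […]. Bacteria were seeded at 5×10^5 CFU/mL against compound concentrations from 64 down to 0.06 μg/mL.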

[2] = system: Staphylococcus sp.; details: broth dilution, 18 hours at 35° C.
In short: as §1

[3] = system: Escherichia coli; details: 18 hours at 35° C.
In short: as §1

[4] = system: Enterococcus sp.; details: broth dilution, 18 hours at 35° C.
In short: as §1

## CC(C)=CCCC1OCC2OC(OC3C(CO)OC(Oc4ccc(CC5NC(=O)C(C(C)c6ccccc6)NC(=O)CNC(=O)C(CO)NC(=O)C(C(O)C6CNC(=N)N6C6OC(CO)C(O)C(O)C6O)NC(=O)C(C(O)C6CNC(=N)N6)NC5=O)cc4)C(O)C3O)C(O)C(O)C2O1 (stereo not shown) [Example 123]
[1]; Streptococcus agalactiae (GC 4564)
  MIC Streptococcus agalactiae (GC 4564): 2 µg/mL (≈ 1.44 µM)
[1]; Streptococcus pneumoniae (ATCC 6301)
  MIC Streptococcus pneumoniae (ATCC 6301): 1 µg/mL (≈ 0.72 µM)
[1]; Streptococcus pneumoniae (GC 1894)
  MIC Streptococcus pneumoniae (GC 1894): 1 µg/mL (≈ 0.72 µM)
[1]; Streptococcus pneumoniae (GC 4565)
  MIC Streptococcus pneumoniae (GC 4565): 2 µg/mL (≈ 1.44 µM)
[1]; Streptococcus pyogenes (GC 4563)
  MIC Streptococcus pyogenes (GC 4563): 0.5 µg/mL (≈ 0.36 µM)
[1]; strain ATCC 6301
  MIC Streptococcus pneumoniae (ATCC 6301): 1 µg/mL (≈ 0.72 µM)
[1]; strain GC 1894
  MIC Streptococcus pneumoniae (GC 1894): 1 µg/mL (≈ 0.72 µM)
[1]; strain GC 4563
  MIC Streptococcus pyogenes (GC 4563): 0.5 µg/mL (≈ 0.36 µM)
[1]; strain GC 4564
  MIC Streptococcus agalactiae (GC 4564): 2 µg/mL (≈ 1.44 µM)
[1]; strain GC 4565
  MIC Streptococcus pneumoniae (GC 4565): 2 µg/mL (≈ 1.44 µM)
[2]
  MIC Staphylococcus aureus (ATCC 29213): 8 µg/mL (≈ 5.76 µM)
  MIC Staphylococcus aureus (GC 1131): 8 µg/mL (≈ 5.76 µM)
  MIC Staphylococcus aureus (GC 3051): 8 µg/mL (≈ 5.76 µM)
  MIC Staphylococcus aureus (GC 3053): 8 µg/mL (≈ 5.76 µM)
  MIC Staphylococcus aureus (GC 4541): 4 µg/mL (≈ 2.88 µM)
  MIC Staphylococcus aureus (GC 4542): 4 µg/mL (≈ 2.88 µM)
  MIC Staphylococcus aureus (GC 4544): 8 µg/mL (≈ 5.76 µM)
  MIC Staphylococcus aureus (GC 4545): 8 µg/mL (≈ 5.76 µM)
[2]; inoculum 5×10^5 CFU/mL, strain GC 1131
  MIC Staphylococcus aureus (GC 1131): 8 µg/mL (≈ 5.76 µM)
[2]; strain ATCC 29213
  MIC Staphylococcus aureus (ATCC 29213): 8 µg/mL (≈ 5.76 µM)
[2]; strain GC 3051
  MIC Staphylococcus aureus (GC 3051): 8 µg/mL (≈ 5.76 µM)
[2]; strain GC 3053
  MIC Staphylococcus aureus (GC 3053): 8 µg/mL (≈ 5.76 µM)
[2]; strain GC 4541
  MIC Staphylococcus aureus (GC 4541): 4 µg/mL (≈ 2.88 µM)
[2]; strain GC 4542
  MIC Staphylococcus aureus (GC 4542): 4 µg/mL (≈ 2.88 µM)
[2]; strain GC 4543
  MIC Staphylococcus aureus-SMITH (GC 4543): 4 µg/mL (≈ 2.88 µM)
[2]; strain GC 4544
  MIC Staphylococcus aureus (GC 4544): 8 µg/mL (≈ 5.76 µM)
[2]; strain GC 4545
  MIC Staphylococcus aureus (GC 4545): 8 µg/mL (≈ 5.76 µM)
[2]; strain GC 4546
  MIC Staphylococcus haemolyticus (GC 4546): 8 µg/mL (≈ 5.76 µM)
[2]; strain GC 4547
  MIC Coagulase Negative Staphylococcus (GC 4547): 8 µg/mL (≈ 5.76 µM)
[2]; strain GC 4548
  MIC Coagulase Negative Staphylococcus (GC 4548): 4 µg/mL (≈ 2.88 µM)
[2]; strain GC 4549
  MIC Coagulase Negative Staphylococcus (GC 4549): 4 µg/mL (≈ 2.88 µM)
[2]; strain GC 4551
  MIC Coagulase Negative Staphylococcus (GC 4551): 8 µg/mL (≈ 5.76 µM)
[2]; strain GC 6257
  MIC Coagulase Negative Staphylococcus (GC 6257): 4 µg/mL (≈ 2.88 µM)
[2]; strain SMITH GC 4543
  MIC Staphylococcus aureus-SMITH (GC 4543): 4 µg/mL (≈ 2.88 µM)
[3]; strain ATCC 25922
  MIC Escherichia coli (ATCC 25922): >64 µg/mL
[3]; strain GC 4559
  MIC Escherichia coli (GC 4559): >64 µg/mL
[3]; strain GC 4560
  MIC Escherichia coli (GC 4560): 8 µg/mL (≈ 5.76 µM)
[4]; Enterococcus avium (GC 4558)
  MIC Enterococcus avium (GC 4558): 16 µg/mL (≈ 11.5 µM)
[4]; Enterococcus faecalis (ATCC 29212)
  MIC Enterococcus faecalis (ATCC 29212): 8 µg/mL (≈ 5.76 µM)
[4]; Enterococcus faecalis (GC 2242)
  MIC Enterococcus faecalis (GC 2242): 8 µg/mL (≈ 5.76 µM)
[4]; Enterococcus faecalis (GC 2691)
  MIC Enterococcus faecalis (GC 2691): 16 µg/mL (≈ 11.5 µM)
[4]; Enterococcus faecalis (GC 3059)
  MIC Enterococcus faecalis (GC 3059): 16 µg/mL (≈ 11.5 µM)
[4]; Enterococcus faecalis (GC 4552)
  MIC Enterococcus faecalis (GC 4552): 8 µg/mL (≈ 5.76 µM)
[4]; Enterococcus faecalis (GC 4553)
  MIC Enterococcus faecalis (GC 4553): 16 µg/mL (≈ 11.5 µM)
[4]; Enterococcus faecalis (GC 4554)
  MIC Enterococcus faecalis (GC 4554): 16 µg/mL (≈ 11.5 µM)
[4]; Enterococcus faecalis (GC 6189)
  MIC Enterococcus faecalis (GC 6189): 8 µg/mL (≈ 5.76 µM)
[4]; Enterococcus faecium (GC 2243)
  MIC Enterococcus faecium (GC 2243): 8 µg/mL (≈ 5.76 µM)
[4]; Enterococcus faecium (GC 4556)
  MIC Enterococcus faecium (GC 4556): 8 µg/mL (≈ 5.76 µM)
[4]; Enterococcus faecium (GC 4557)
  MIC Enterococcus faecium (GC 4557): 8 µg/mL (≈ 5.76 µM)
[4]; strain ATCC 29212
  MIC Enterococcus faecalis (ATCC 29212): 8 µg/mL (≈ 5.76 µM)
[4]; strain GC 2242
  MIC Enterococcus faecalis (GC 2242): 8 µg/mL (≈ 5.76 µM)
[4]; strain GC 2243
  MIC Enterococcus faecium (GC 2243): 8 µg/mL (≈ 5.76 µM)
[4]; strain GC 2691
  MIC Enterococcus faecalis (GC 2691): 16 µg/mL (≈ 11.5 µM)
[4]; strain GC 3059
  MIC Enterococcus faecalis (GC 3059): 16 µg/mL (≈ 11.5 µM)
[4]; strain GC 4552
  MIC Enterococcus faecalis (GC 4552): 8 µg/mL (≈ 5.76 µM)
[4]; strain GC 4553
  MIC Enterococcus faecalis (GC 4553): 16 µg/mL (≈ 11.5 µM)
[4]; strain GC 4554
  MIC Enterococcus faecalis (GC 4554): 16 µg/mL (≈ 11.5 µM)
[4]; strain GC 4556
  MIC Enterococcus faecium (GC 4556): 8 µg/mL (≈ 5.76 µM)
[4]; strain GC 4557
  MIC Enterococcus faecium (GC 4557): 8 µg/mL (≈ 5.76 µM)
[4]; strain GC 4558
  MIC Enterococcus avium (GC 4558): 16 µg/mL (≈ 11.5 µM)
[4]; strain GC 6189
  MIC Enterococcus faecalis (GC 6189): 8 µg/mL (≈ 5.76 µM)
